Converted amounts (≈) assume the structure as drawn.
Assays:
E. faecium D344R = experiment: microbe, parasite or virus in culture; type: cell-based, Enterococcus faecium; details: E. faecium D344R, human clinical isolate; 24 h
Protocol: (§1) Overnight cultures of the enterococcal isolates were diluted in physiological saline (0.9% NaCl) to reach a turbidity of 0.5 McFarland units (Sensititre® nephelometer and the Sensititre® McFarland Standard). Bacterial suspensions were adjusted to 5 × 10^5 CFU/mL in MHB II or BHI broth containing two-fold dilutions of peptidomimetics or conventional antibiotics in a final volume of 100 µL. The plates were incubated for 24 h at 37 °C without shaking. […] All experiments were performed in three biological replicates.

E. faecium 2961 = experiment: microbe, parasite or virus in culture; type: cell-based, Enterococcus faecium; details: 2961, 24 h
Protocol: as §1

E. faecium 3978 = experiment: microbe, parasite or virus in culture; type: cell-based, Enterococcus faecium; details: 3978, 24 h
Protocol: as §1

E. faecium 1798 = experiment: microbe, parasite or virus in culture; type: cell-based, Enterococcus faecium; details: 1798, 24 h
Protocol: as §1

[1] = Hydrophobicity by analytical RP-HPLC (% MeCN at peak elution); type: physicochemical
Protocol: Water was filtered by using an Evoqua LaboStar PRO TWF Ultra Pure Water System prior to use in high-performance liquid chromatography (HPLC). The retention time for each peptidomimetic was determined by analytical HPLC using a Phenomenex Luna C18(2) HST column (100 mm × 3 mm; particle size: 2.5 μm; pore size: 100 Å) on a Shimadzu Prominence and Shimadzu Nexera system using an aqueous MeCN gradient with 0.1% trifluoroacetic acid (TFA) added (eluent A: 5:95 MeCN–H2O + 0.1% TFA; eluent B: 95:5 MeCN–H2O + 0.1% TFA); a flow rate of 0.5 mL/min was used. For the elution of peptidomimetics, a linear gradient of 0% to 60% B over 10 min was used with UV detection at λ = 220 nm. The percentage MeCN at peak elution was calculated from the retention time (tR) by using the following formula:%MeCN = [0.95 × 0.6 × tR/10 + 0.05 × (1 − 0.6 × tR/10)] × 100%

E. faecium ATCC 19434 = experiment: Time-kill kinetics; type: cell-based, Enterococcus faecium; details: for Reduction in viable bacteria (time-kill): up to 5 h exposure, BHI broth
Protocol: Time–kill kinetics were established for compounds 2, 5 and 10 in E. faecium ATCC 19434 and E. faecalis ATCC 29212. Prior to the experiments, the isolates were incubated on BHI agar supplemented with 5% calf blood at 37 °C overnight (ON). For each of the strains 1-2 colonies were transferred into 4 mL BHI broth and incubated ON at 37 °C with shaking (180 rpm). OD600 was measured, and then cultures were diluted with BHI broth to an OD600 of 0.05 and grown for approximately 2 h to reach the exponential phase.
One untreated control per strain was prepared. The inoculum was quantified by plating and subsequently enumerated. The initial inocula were approximately 10^7 CFU/mL. Two controls were included, both without bacteria and one including the respective compound without bacteria. All tubes were incubated at 37 °C with shaking (180 rpm). Samples of 100 µL were taken after 1 h, 3 h and 5 h of exposure. Appropriate dilutions were spread onto BHI agar plates and incubated at 37 °C overnight, and then colonies were enumerated. Plates were incubated for 24 h and 48 h, and then checked for the appearance of slow-growing colonies. The experiments were performed with at least three biological replicates for each condition and time point.

E. faecium (MV388) [2] = experiment: Membrane integrity, propidium iodide uptake by flow cytometry; type: cell-based, Enterococcus faecium; details: peptidomimetics at MBC, nisin at MIC; 5 min
Protocol: Membrane integrity was assessed by using a propidium iodide (PI) uptake assay, as previously described. In brief, 2 μL of stationary enterococcal cultures were transferred to Falcon round-bottom tubes (14 mL; Corning), each containing 2 mL fresh BHI medium. Cultures were grown to an OD600 of 0.2 at 37 °C with shaking (180 rpm). […] Then, 15 μL of culture was transferred into 980 μL filtered phosphate-buffered saline, and then stained for 5 min with 5 μL of 0.1 mg/mL PI. After staining, the red fluorescence levels (FL3 channel) in cells were recorded by using a BD Biosciences Accuri C6 flow cytometer (Becton Dickinson). The settings of the flow cytometer were as follows: 25,000 recorded events at an FSC threshold of 15,000, and medium flow rate. The gating of the stained cell population and analysis of flow cytometry data were performed in CFlow (BD Accuri). The assessment of membrane integrity was performed in three biological replicates for each condition.

E. faecium (MV388) [3] = type: cell-based, Enterococcus faecium; details: MV388, 24 h
Protocol: (§2) The minimum bactericidal concentration (MBC) is defined as the lowest concentration of the peptidomimetics that kills 99.9% of the bacterial population. All experiments were performed in three biological replicates.

E. faecalis (MV269) = type: cell-based, Enterococcus faecalis; details: MV269, 24 h
Protocol: as §2

[4] = tested on: HepG2 cell line ATCC HB-8065; experiment: Effect on HepG2 cell viability (MTT assay); type: cell-based, human; details: 48 h
Protocol: The effect of peptidomimetics on mammalian cell viability was determined on the HepG2 cell line ATCC HB-8065. In brief, HepG2 cells were seeded into flat-bottom 96-well plates at a concentration of 5000 cells per well. The cells were incubated for 24 h in a humidified incubator (5% CO2, 37 °C). Subsequently, the medium was removed, and the cells were incubated for 48 h in a humidified incubator (5% CO2, 37 °C) with peptidomimetics in serial dilutions. An MTT assay was then performed; in brief, after incubation with the test compounds, the culture medium was removed and fresh medium with 0.2 mg/mL MTT was then added into each well. After incubation (3 h, 37 °C, 5% CO2), the medium with MTT was removed, and 200 μL dimethyl sulfoxide was added at once to each sample. The absorbance of MTT was measured using the spectrophotometer TECAN Infinite M1000 at 540 nm. The relative viability was calculated by using the formula:ODtreated cells × 100/ODcontrol cells
The IC50 values were calculated using the program Graph Pad Prism 5.0. For all compounds, the test range was 10–1280 μg/mL.

Compound: CC(=O)N[C@@H](CCCCNC(=N)N)C(=O)N(CCC(=O)N[C@@H](CCCCN)C(=O)N(CCC(=O)N[C@@H](CCCCNC(=N)N)C(=O)N(CCC(=O)N[C@@H](CCCCN)C(=O)N(CCC(=O)N[C@@H](CCCCNC(=N)N)C(=O)N(CCC(=O)N[C@@H](CCCCN)C(=O)N(CCC(N)=O)[C@@H](C)c1ccccc1)[C@@H](C)C1CCCCC1)[C@@H](C)c1ccccc1)[C@@H](C)C1CCCCC1)[C@@H](C)c1ccccc1)[C@@H](C)C1CCCCC1 [Compound 5, Ac-[hArg-βNsce-Lys-βNspe]3-NH2]
- Minimum inhibitory concentration (E. faecium D344R): 2 µg/mL (≈ 0.988 µM)
- Minimum inhibitory concentration (E. faecium 2961): 2 µg/mL (≈ 0.988 µM)
- Minimum inhibitory concentration (E. faecium 3978): 2 µg/mL (≈ 0.988 µM)
- Minimum inhibitory concentration (E. faecium 1798): 2 µg/mL (≈ 0.988 µM)
- Hydrophobicity, Luna C18(2) HST (0–60% B; 10 min), retention converted into % MeCN [1]: 46.6 % MeCN
- Reduction in viable bacteria (time-kill) (E. faecium ATCC 19434; 4× MIC): 1.5 log
- Reduction in viable cell counts within 1 h (E. faecium ATCC 19434; 4× MIC, within 1 h of exposure): no reduction in viable cell counts
- Propidium iodide (PI) uptake, membrane integrity (E. faecium (MV388) [2]): less perturbation of membrane integrity
- Minimum bactericidal concentration (E. faecium (MV388) [3]): 128 µg/mL (≈ 63.2 µM)
- Minimum bactericidal concentration (E. faecalis (MV269)): 16 µg/mL (≈ 7.91 µM)
- HepG2 IC50 [4]: 73 µg/mL

Compound: CCCCCCCC(=O)N[C@@H](CCCCN)C(=O)N(CCC(=O)N[C@@H](CCCCN)C(=O)N(CCC(=O)N[C@@H](CCCCN)C(=O)N(CCC(=O)N[C@@H](CCCCN)C(=O)N(CCC(=O)N[C@@H](CCCCN)C(=O)N(CCC(=O)N[C@@H](CCCCN)C(=O)N(CCC(N)=O)[C@@H](C)c1ccccc1)[C@@H](C)c1ccccc1)[C@@H](C)c1ccccc1)[C@@H](C)c1ccccc1)[C@@H](C)c1ccccc1)[C@@H](C)c1ccccc1 [Compound 10, Oct-[Lys-βNspe]6-NH2]
- Minimum inhibitory concentration (E. faecium D344R): 4 µg/mL (≈ 2.04 µM)
- Minimum inhibitory concentration (E. faecium 2961): 4 µg/mL (≈ 2.04 µM)
- Minimum inhibitory concentration (E. faecium 3978): 2 to 4 µg/mL
- Minimum inhibitory concentration (E. faecium 1798): 2 to 4 µg/mL
- Hydrophobicity, Luna C18(2) HST (0–60% B; 10 min), retention converted into % MeCN [1]: 47.2 % MeCN
- Reduction in viable bacteria (time-kill) (E. faecium ATCC 19434; 4× MIC): 4 log
- Propidium iodide (PI) uptake, membrane integrity (E. faecium (MV388) [2]): less perturbation of membrane integrity
- Minimum bactericidal concentration (E. faecium (MV388) [3]): 16 µg/mL (≈ 8.15 µM)
- Minimum bactericidal concentration (E. faecalis (MV269)): 32 µg/mL (≈ 16.3 µM)
- HepG2 IC50 [4]: 41 µg/mL

Compound: CC(=O)N[C@@H](CCCCNC(=N)N)C(=O)N(CCC(=O)N[C@@H](CCCCNC(=N)N)C(=O)N(CCC(=O)N[C@@H](CCCCNC(=N)N)C(=O)N(CCC(=O)N[C@@H](CCCCNC(=N)N)C(=O)N(CCC(=O)N[C@@H](CCCCNC(=N)N)C(=O)N(CCC(=O)N[C@@H](CCCCNC(=N)N)C(=O)N(CCC(N)=O)[C@@H](C)C1CCCCC1)[C@@H](C)C1CCCCC1)[C@@H](C)C1CCCCC1)[C@@H](C)C1CCCCC1)[C@@H](C)C1CCCCC1)[C@@H](C)C1CCCCC1 [Compound 2, Ac-[hArg-βNsce]6-NH2]
- Minimum inhibitory concentration (E. faecium D344R): 2 µg/mL (≈ 0.922 µM)
- Minimum inhibitory concentration (E. faecium 2961): 2 µg/mL (≈ 0.922 µM)
- Minimum inhibitory concentration (E. faecium 3978): 2 µg/mL (≈ 0.922 µM)
- Minimum inhibitory concentration (E. faecium 1798): 2 µg/mL (≈ 0.922 µM)
- Hydrophobicity, Luna C18(2) HST (0–60% B; 10 min), retention converted into % MeCN [1]: 51.6 % MeCN
- Bactericidal or bacteriostatic mode of action (E. faecium ATCC 19434; 8 µg/mL (4× MIC)): bactericidal
- Reduction in viable bacteria (time-kill) (E. faecium ATCC 19434; 4× MIC): approximately 3 log
- Propidium iodide (PI) uptake, membrane integrity (E. faecium (MV388) [2]): significant accumulation of PI
- Minimum bactericidal concentration (E. faecium (MV388) [3]): 4 to 8 µg/mL
- Minimum bactericidal concentration (E. faecalis (MV269)): 8 µg/mL (≈ 3.69 µM)
- HepG2 IC50 [4]: 15 µg/mL

Source: publication PMC8197855, “Peptide/β-Peptoid Hybrids with Activity against Vancomycin-Resistant Enterococci: Influence of Hydrophobicity and Structural Features on Antibacterial and Hemolytic Properties” (International Journal of Molecular Sciences, 2021)
